Data published in the CheMixHub viscosity set.

Assay: xn = mol fraction of the nth substance listed

CC1CCCCC1 + CCCCCCCO
Conditions | viscosity [mPa·s]
298.15 K, 101 kPa, x1 = 0.111 | 4.608
298.15 K, 101 kPa, x1 = 0.2237 | 3.546
298.15 K, 101 kPa, x1 = 0.389 | 2.371
298.15 K, 101 kPa, x1 = 0.6878 | 1.192
298.15 K, 101 kPa, x1 = 0.8281 | 0.89
298.15 K, 101 kPa, x1 = 0.9181 | 0.757
303.15 K, 101.33 kPa, x2 = 0.1208 | 0.7838
303.15 K, 101.33 kPa, x2 = 0.211 | 0.9181
303.15 K, 101.33 kPa, x2 = 0.3517 | 1.174
303.15 K, 101.33 kPa, x2 = 0.4355 | 1.364
303.15 K, 101.33 kPa, x2 = 0.5214 | 1.599
303.15 K, 101.33 kPa, x2 = 0.608 | 1.899
303.15 K, 101.33 kPa, x2 = 0.718 | 2.394
303.15 K, 101.33 kPa, x2 = 0.7991 | 2.87
303.15 K, 101.33 kPa, x2 = 0.8894 | 3.56

CCOC(=O)c1ccccc1 + C1COCCO1
viscosity [mPa·s], 101 kPa
Conditions | x1 = 0.0639 | x1 = 0.1304 | x1 = 0.1626 | x1 = 0.2849 | x1 = 0.3735 | x1 = 0.4716 | x1 = 0.5805 | x1 = 0.7048 | x1 = 0.8402
303.15 K | 1.118 | 1.155 | 1.172 | 1.246 | 1.296 | 1.369 | 1.445 | 1.535 | 1.633
308.15 K | 1.026 | 1.062 | 1.078 | 1.146 | 1.195 | 1.259 | 1.33 | 1.416 | 1.502
313.15 K | 0.972 | 1.001 | 1.013 | 1.069 | 1.108 | 1.16 | 1.214 | 1.279 | 1.348

CCOC(=O)[C@@H](O)[C@H](O)C(=O)OCC + CC(C)CCO
viscosity [mPa·s], 101 kPa
Conditions | x1 = 0.1 | x1 = 0.2 | x1 = 0.3 | x1 = 0.4001 | x1 = 0.5 | x1 = 0.6001 | x1 = 0.6999 | x1 = 0.7997 | x1 = 0.8998
293.15 K | 5.227 | 7.032 | 9.91 | 13.58 | 20.31 | 31.03 | 46.13 | 74.54 | 129.6
298.15 K | 4.438 | 5.859 | 8.123 | 10.83 | 15.81 | 23.2 | 33.35 | 51.5 | 84.95
303.15 K | 3.768 | 4.88 | 6.638 | 8.752 | 12.37 | 17.66 | 24.71 | 36.84 | 58.14
308.15 K | 3.225 | 4.138 | 5.497 | 7.134 | 9.862 | 13.75 | 18.79 | 27.17 | 41.31
313.15 K | 2.774 | 3.487 | 4.567 | 5.855 | 7.945 | 10.86 | 14.56 | 20.53 | 30.25
318.15 K | 2.416 | 3.02 | 3.904 | 4.935 | 6.58 | 8.824 | 11.61 | 15.99 | 22.88
323.15 K | 2.13 | 2.649 | 3.374 | 4.215 | 5.529 | 7.295 | 9.449 | 12.74 | 17.8

C=C(C)C(=O)OCC + CC#N
viscosity [mPa·s], 101 kPa
Conditions | 298.15 K | 303.15 K | 308.15 K | 313.15 K | 318.15 K
x2 = 0.0556 | 0.6285 | 0.5725 | 0.5246 | 0.4857 | 0.4542
x2 = 0.1112 | 0.6154 | 0.562 | 0.5162 | 0.479 | 0.4489
x2 = 0.1631 | 0.6027 | 0.5516 | 0.5079 | 0.4722 | 0.4433
x2 = 0.2147 | 0.5894 | 0.5408 | 0.499 | 0.4649 | 0.4372
x2 = 0.2795 | 0.5723 | 0.5266 | 0.4872 | 0.455 | 0.4287
x2 = 0.3446 | 0.5545 | 0.5115 | 0.4746 | 0.4443 | 0.4194
x2 = 0.4132 | 0.5349 | 0.495 | 0.4606 | 0.4322 | 0.4088
x2 = 0.4819 | 0.5147 | 0.4777 | 0.4458 | 0.4194 | 0.3974
x2 = 0.5597 | 0.4911 | 0.4574 | 0.4283 | 0.404 | 0.3836
x2 = 0.6375 | 0.4667 | 0.4364 | 0.41 | 0.3878 | 0.3689
x2 = 0.7251 | 0.4385 | 0.4119 | 0.3885 | 0.3686 | 0.3515
x2 = 0.8113 | 0.4101 | 0.387 | 0.3666 | 0.349 | 0.3334
x2 = 0.9014 | 0.3798 | 0.3604 | 0.343 | 0.3277 | 0.3137
x2 = 0.9542 | 0.3618 | 0.3445 | 0.3289 | 0.3148 | 0.3018

O=C(C=Cc1ccccc1)c1ccccc1 + CCO
viscosity [mPa·s], 101 kPa
Conditions | x1 = 0.000144 | x1 = 0.000288 | x1 = 0.0005755 | x1 = 0.00115 | x1 = 0.002298 | x1 = 0.004586
298.15 K | 1.102 | 1.141 | 1.216 | 1.256 | 1.283 | 1.356
303.15 K | 1.01 | 1.049 | 1.115 | 1.156 | 1.181 | 1.255
308.15 K | 0.9181 | 0.9561 | 1.014 | 1.056 | 1.079 | 1.154

CCCNCCC + c1ccccc1
viscosity [mPa·s], 101 kPa
Conditions | x1 = 0.0105 | x1 = 0.02072 | x1 = 0.0306 | x1 = 0.03896 | x1 = 0.05078 | x1 = 0.06138 | x1 = 0.07232 | x1 = 0.08121 | x1 = 0.09171
303.15 K | 0.5622 | 0.5617 | 0.561 | 0.5607 | 0.5602 | 0.5588 | 0.5575 | 0.5554 | 0.5542
313.15 K | 0.4915 | 0.4902 | 0.4897 | 0.489 | 0.488 | 0.4872 | 0.4861 | 0.4851 | 0.4839
